Results from patent US10603292B2 (Boehringer Ingelheim International GmbH, priority 2017, dated 2020).

Legend:
[1] = tested on: oxygen-induced retinopathy (OIR) mouse model; assay: Neovascular tuft formation in oxygen-induced retinopathy (OIR) mouse model; settings: neonatal mice, 1.8 mg/kg s.c. at P12 and P14, read at P16, vs vehicle control
Description: Application volume was 10 ml/kg. Control animals received vehicle only.
In this context P means postnatal day. […] Starting from P12, the avascular area begins to revascularize and at the same time neovascular tufts protrude towards the vitreous. At P16 and P17, aberrant pathological neovascularization peaks and revascularization is still incomplete. Mouse eyes were enucleated, fixed in 4% PFA for at least 24 h, and embedded in paraffin. Every 3rd slide from serial sections (6 μm thick) was taken from around the region of the optic nerve. The PAS-stained sections were examined for the presence of neovascular tufts projecting into the vitreous from the inner limiting membrane of the retina. The neovascular score was defined as the mean number of neovascular cell nuclei per section found in ten sections (five on each side of the optic nerve) per eye. Tufts adjacent to the optic nerve (up to 90 μm from each side) were discriminated from counting. Data are represented as mean of 10 slides ±SEM counted tuft cells with one-way ANOVA testing and p<0.05 regarded as significant.

[2] = tested on: STZ-induced diabetic rat model; assay: Retinal function (ERG light sensitivity) in STZ-induced diabetic rat model; assay type: in vivo; settings: STZ diabetic rats, 1.8 mg/kg orally twice daily for 5 weeks; group 3 compared to diabetic vehicle group 2
Description: Male Brown Norway rats (BN rats) were obtained from Charles River (Germany). Hyperglycemia was induced by i.p. injections of STZ (65 mg/kg body weight). […] API was used in the form of its hydrochloride. Retinal function was assessed via electroretinography (ERG) recordings. ERG is a non-invasive electrophysiological technique to assess light-induced electrical activity of different retinal neurons, and allows for quantifying different aspects of retinal function such as dim light or color vision. After induction of diabetes via i.p. STZ application (day 1), diabetic (hyperglycemic) animals were randomized into groups of similar blood glucose concentrations (>20 mM at day 5). At week 5 post diabetes induction, ERG recordings were performed to quantify the extent of neuronal dysfunction in the retina. […] The light sensitivity of rod-driven ERG b-wave responses is a measure for the number of neurons participating in the rod-driven retinal pathway (in particular photoreceptors and downstream bipolar cells), and their sensitivity towards light stimuli in order to produce depolarizing light responses. […]

AOC3 = biological target: T1, AOC3 (Mus musculus, UniProt O70423); assay: AOC3 activity in sentinel lung tissue homogenates of OIR mice; settings: 1.8 mg/kg s.c.
T1 sequence (O70423 1-765): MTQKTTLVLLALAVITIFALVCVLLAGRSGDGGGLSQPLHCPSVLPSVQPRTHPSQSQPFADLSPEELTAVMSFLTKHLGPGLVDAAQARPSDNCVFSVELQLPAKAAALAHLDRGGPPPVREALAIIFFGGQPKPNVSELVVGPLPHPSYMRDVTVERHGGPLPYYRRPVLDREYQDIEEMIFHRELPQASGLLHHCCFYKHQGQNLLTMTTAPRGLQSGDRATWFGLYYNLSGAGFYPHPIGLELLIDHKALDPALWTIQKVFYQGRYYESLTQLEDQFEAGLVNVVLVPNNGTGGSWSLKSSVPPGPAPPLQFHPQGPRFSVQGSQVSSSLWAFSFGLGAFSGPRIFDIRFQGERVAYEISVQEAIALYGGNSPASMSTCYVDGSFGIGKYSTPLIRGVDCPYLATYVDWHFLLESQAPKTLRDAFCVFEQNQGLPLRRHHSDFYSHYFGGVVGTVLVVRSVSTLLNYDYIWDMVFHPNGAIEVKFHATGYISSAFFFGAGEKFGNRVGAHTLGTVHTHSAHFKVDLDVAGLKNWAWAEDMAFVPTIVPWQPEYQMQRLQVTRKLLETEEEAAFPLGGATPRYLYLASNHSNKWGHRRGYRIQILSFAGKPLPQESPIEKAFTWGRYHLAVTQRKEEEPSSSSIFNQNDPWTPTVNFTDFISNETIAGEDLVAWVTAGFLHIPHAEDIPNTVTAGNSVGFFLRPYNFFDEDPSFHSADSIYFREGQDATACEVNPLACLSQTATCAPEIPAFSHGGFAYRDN

SMILES | Reduction of retinal neovascular tuft formation (tuft number) [1] | Increase in normalized light sensitivity of rod-driven ERG b-wave responses [2] | Inhibition of AOC3 activity in sentinel lung tissue homogenates (AOC3)
CC(C)(C)NC(=O)c1ccc(OC/C(=C/F)CN)cc1 [API, (E)-4-(2-(aminomethyl)-3-fluoroallyloxy)-N-tert-butylbenzamide] | 49% | ~30% | 
C[C@@H]1C[C@H]2[C@@H]3CCC4=CC(=O)C=C[C@]4(C)[C@@]3(F)[C@@H](O)C[C@]2(C)[C@@]1(O)C(=O)CO [Dexamethasone] | 57% |  | no significant effect
